Consider one molecule from ChEMBL document CHEMBL3862033 (J Med Chem, 2016).

Chain of 5-hydroxytryptamine receptor 6 (Homo sapiens) (P50406 whole entry): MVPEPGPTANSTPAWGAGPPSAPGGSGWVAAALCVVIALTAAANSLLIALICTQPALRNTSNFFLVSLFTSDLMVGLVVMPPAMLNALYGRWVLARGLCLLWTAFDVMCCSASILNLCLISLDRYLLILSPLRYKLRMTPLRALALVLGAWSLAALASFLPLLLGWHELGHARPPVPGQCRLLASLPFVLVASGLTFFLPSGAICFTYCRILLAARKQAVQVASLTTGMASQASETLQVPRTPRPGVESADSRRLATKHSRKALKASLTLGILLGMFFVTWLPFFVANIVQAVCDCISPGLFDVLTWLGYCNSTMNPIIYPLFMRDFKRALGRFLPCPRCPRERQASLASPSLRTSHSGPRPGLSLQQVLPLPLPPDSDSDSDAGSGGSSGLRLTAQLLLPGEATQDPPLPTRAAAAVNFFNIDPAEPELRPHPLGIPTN
Chain of Adenosine receptor A2a (P29274 whole entry): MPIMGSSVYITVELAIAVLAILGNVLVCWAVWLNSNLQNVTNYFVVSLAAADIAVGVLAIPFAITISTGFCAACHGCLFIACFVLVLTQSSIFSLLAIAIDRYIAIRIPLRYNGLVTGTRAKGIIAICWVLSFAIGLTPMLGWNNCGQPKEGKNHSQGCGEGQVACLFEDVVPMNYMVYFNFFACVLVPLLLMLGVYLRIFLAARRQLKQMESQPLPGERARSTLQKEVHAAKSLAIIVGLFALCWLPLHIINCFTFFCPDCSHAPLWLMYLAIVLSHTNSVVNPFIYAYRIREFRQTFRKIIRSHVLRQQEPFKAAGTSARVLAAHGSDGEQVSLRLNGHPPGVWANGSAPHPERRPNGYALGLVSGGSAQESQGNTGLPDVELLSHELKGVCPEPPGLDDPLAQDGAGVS

For one test, the target named is T1, 5-hydroxytryptamine receptor 1A (Homo sapiens) (UniProt P08908).
T1 sequence (whole entry): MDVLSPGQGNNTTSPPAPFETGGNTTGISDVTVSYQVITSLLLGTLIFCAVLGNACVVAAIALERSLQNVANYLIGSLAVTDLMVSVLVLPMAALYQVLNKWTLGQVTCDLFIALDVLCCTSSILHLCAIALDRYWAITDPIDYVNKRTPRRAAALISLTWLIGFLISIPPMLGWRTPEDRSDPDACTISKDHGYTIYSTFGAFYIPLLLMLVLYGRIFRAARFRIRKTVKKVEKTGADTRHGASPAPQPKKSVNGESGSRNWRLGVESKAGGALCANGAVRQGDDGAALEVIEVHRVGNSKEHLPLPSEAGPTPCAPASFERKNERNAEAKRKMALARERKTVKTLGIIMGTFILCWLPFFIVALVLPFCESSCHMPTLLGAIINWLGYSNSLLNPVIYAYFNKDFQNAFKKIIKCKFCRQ
Briefly: Displacement of [3H]WAY100635 from human 5-HT1AR expressed in CHO cell membranes at 10 uM incubated for 90 mins under dark condition by microbeta scintillation counting method relative to control.
Conditions: not given
(In general: In a radioligand displacement assay an active substance lowers the binding of a labelled ligand.)
One may read the inhibition as how much of the control response was suppressed. In the case of `CC(=O)NCCNC(=O)[C@@]12C[C@@H]1[C@@H](n1cnc3c(NC(C4CC4)C4CC4)nc(Cl)nc31)[C@H](O)[C@@H]2O`, the inhibition was < 50%.

For the next test, the target named is 5-hydroxytryptamine receptor 1B (Homo sapiens) (UniProt P28222). Briefly: Displacement of [3H]5-CT from human 5-HT1BR expressed in HEK cell membranes at 10 uM incubated for 90 mins under dark condition by microbeta scintillation counting method relative to control. The note with it: HEK293.
Chain of 5-hydroxytryptamine receptor 1B (Homo sapiens) (P28222 whole entry): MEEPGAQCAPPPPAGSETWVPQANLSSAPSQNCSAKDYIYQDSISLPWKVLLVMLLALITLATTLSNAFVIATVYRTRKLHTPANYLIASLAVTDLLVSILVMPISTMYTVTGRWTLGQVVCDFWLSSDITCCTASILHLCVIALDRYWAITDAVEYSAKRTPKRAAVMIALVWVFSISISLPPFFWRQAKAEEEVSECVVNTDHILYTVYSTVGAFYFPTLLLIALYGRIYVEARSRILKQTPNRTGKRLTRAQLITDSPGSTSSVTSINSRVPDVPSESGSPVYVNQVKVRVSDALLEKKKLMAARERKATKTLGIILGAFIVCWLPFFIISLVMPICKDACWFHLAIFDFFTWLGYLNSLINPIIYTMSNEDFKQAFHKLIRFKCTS
As to `CC(=O)NCCNC(=O)[C@@]12C[C@@H]1[C@@H](n1cnc3c(NC(C4CC4)C4CC4)nc(Cl)nc31)[C@H](O)[C@@H]2O`, the inhibition is < 50%.

The target of a further test is 5-hydroxytryptamine receptor 1D (Homo sapiens) (UniProt P28221). Briefly: Displacement of [3H]5-CT from human 5-HT1D receptor expressed in HEK-T cell membranes at 10 uM incubated for 90 mins under dark condition by microbeta scintillation counting method relative to control.
Chain of 5-hydroxytryptamine receptor 1D (Homo sapiens) (P28221 whole entry): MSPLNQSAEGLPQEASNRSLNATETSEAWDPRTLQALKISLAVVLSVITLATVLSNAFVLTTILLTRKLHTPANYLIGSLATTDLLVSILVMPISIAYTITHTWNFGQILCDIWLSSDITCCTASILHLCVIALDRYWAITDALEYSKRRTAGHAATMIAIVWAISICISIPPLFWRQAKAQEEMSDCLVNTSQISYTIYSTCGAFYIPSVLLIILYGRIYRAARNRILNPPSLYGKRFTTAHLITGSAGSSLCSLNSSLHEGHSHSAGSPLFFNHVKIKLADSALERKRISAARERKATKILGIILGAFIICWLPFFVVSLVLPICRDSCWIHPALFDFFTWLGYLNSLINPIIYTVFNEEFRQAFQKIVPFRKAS
Conditions: not given
For `CC(=O)NCCNC(=O)[C@@]12C[C@@H]1[C@@H](n1cnc3c(NC(C4CC4)C4CC4)nc(Cl)nc31)[C@H](O)[C@@H]2O`, the inhibition is < 50%.

A further test deals with 5-hydroxytryptamine receptor 1E (Homo sapiens) (UniProt P28566). The experiment in a line: Displacement of [3H]5-HT from human 5-HT1E receptor expressed in HEK cell membranes at 10 uM incubated for 90 mins under dark condition by microbeta scintillation counting method relative to control. The note with it: HEK293.
Chain of 5-hydroxytryptamine receptor 1E (Homo sapiens) (P28566 whole entry): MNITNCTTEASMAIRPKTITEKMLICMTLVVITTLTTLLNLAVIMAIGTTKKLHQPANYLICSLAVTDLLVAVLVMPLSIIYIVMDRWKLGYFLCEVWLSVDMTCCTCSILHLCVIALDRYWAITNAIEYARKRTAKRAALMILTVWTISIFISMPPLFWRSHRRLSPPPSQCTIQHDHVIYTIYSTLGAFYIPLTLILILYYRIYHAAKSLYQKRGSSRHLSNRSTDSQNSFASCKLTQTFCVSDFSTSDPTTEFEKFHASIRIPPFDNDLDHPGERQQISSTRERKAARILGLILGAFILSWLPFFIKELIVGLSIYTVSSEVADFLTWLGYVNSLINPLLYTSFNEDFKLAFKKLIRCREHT
Take `CC(=O)NCCNC(=O)[C@@]12C[C@@H]1[C@@H](n1cnc3c(NC(C4CC4)C4CC4)nc(Cl)nc31)[C@H](O)[C@@H]2O`: the inhibition is < 50%.

The target of a further test is 5-hydroxytryptamine receptor 4 (Homo sapiens) (UniProt Q13639). The experiment in a line: Displacement of [3H]GR113808 from human 5-HT4 receptor at 10 uM incubated for 90 mins under dark condition by microbeta scintillation counting method relative to control.
Chain of 5-hydroxytryptamine receptor 4 (Homo sapiens) (Q13639 whole entry): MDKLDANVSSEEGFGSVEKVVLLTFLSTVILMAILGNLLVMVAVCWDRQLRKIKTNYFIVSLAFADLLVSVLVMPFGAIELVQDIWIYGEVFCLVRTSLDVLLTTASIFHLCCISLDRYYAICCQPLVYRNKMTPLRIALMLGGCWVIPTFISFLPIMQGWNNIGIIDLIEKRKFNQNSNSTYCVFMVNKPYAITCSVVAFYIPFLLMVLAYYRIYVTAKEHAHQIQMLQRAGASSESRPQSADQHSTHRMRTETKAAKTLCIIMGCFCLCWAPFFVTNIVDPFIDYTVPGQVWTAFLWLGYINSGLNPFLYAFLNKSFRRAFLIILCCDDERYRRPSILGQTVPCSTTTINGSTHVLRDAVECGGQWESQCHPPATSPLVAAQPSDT
Conditions: not given
With `CC(=O)NCCNC(=O)[C@@]12C[C@@H]1[C@@H](n1cnc3c(NC(C4CC4)C4CC4)nc(Cl)nc31)[C@H](O)[C@@H]2O`, the inhibition is < 50%.

Another test addresses 5-hydroxytryptamine receptor 6 (Homo sapiens) (UniProt P50406). The experiment in a line: Displacement of [3H]LSD from human 5-HT6 receptor expressed in HEK cell membranes at 10 uM incubated for 90 mins under dark condition by microbeta scintillation counting method relative to control. The note with it: HEK293.
Take `CC(=O)NCCNC(=O)[C@@]12C[C@@H]1[C@@H](n1cnc3c(NC(C4CC4)C4CC4)nc(Cl)nc31)[C@H](O)[C@@H]2O`: the inhibition was < 50%.

For the next test, the target named is 5-hydroxytryptamine receptor 7 (Homo sapiens) (UniProt P34969). The experiment in a line: Displacement of [3H]LSD from human 5-HT7A receptor expressed in HEK cell membranes at 10 uM incubated for 90 mins under dark condition by microbeta scintillation counting method relative to control. The following applies: HEK293.
Chain of 5-hydroxytryptamine receptor 7 (Homo sapiens) (P34969 whole entry): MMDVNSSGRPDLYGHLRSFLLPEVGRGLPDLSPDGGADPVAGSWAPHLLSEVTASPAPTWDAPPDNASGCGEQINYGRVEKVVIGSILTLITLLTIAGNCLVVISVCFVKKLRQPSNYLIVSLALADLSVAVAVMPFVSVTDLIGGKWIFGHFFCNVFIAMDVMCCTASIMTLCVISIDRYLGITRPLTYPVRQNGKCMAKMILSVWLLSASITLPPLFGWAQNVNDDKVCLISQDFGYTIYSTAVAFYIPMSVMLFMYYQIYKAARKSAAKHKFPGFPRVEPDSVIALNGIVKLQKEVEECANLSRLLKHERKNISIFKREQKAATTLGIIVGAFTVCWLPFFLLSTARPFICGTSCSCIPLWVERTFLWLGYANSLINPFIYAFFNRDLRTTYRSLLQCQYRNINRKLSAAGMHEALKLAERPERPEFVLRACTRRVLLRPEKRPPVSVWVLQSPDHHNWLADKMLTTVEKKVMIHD
For the molecule `CC(=O)NCCNC(=O)[C@@]12C[C@@H]1[C@@H](n1cnc3c(NC(C4CC4)C4CC4)nc(Cl)nc31)[C@H](O)[C@@H]2O`, the inhibition is < 50%.

In a further test the target is T2, 5-hydroxytryptamine receptor 3A (Homo sapiens) (UniProt P46098).
T2 sequence (whole entry): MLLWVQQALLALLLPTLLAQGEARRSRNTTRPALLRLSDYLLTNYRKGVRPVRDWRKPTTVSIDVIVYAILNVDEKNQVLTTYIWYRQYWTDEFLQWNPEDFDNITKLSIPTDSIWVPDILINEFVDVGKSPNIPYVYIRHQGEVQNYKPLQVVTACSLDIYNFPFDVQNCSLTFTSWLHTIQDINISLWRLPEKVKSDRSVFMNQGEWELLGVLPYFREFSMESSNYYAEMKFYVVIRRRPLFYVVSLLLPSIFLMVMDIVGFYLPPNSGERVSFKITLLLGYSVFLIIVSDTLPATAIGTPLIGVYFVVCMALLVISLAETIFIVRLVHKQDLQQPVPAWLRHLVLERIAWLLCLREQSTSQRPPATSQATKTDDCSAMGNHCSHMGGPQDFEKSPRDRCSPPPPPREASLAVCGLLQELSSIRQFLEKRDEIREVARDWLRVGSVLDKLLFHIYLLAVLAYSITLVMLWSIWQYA
The experiment in a line: Displacement of [3H]GR65630 from human 5-HT3 receptor expressed in HEK-T cell membranes at 10 uM incubated for 90 mins under dark condition by microbeta scintillation counting method relative to control.
Conditions: not given
For `CC(=O)NCCNC(=O)[C@@]12C[C@@H]1[C@@H](n1cnc3c(NC(C4CC4)C4CC4)nc(Cl)nc31)[C@H](O)[C@@H]2O`, the inhibition is < 50%.

The target of a further test is 5-hydroxytryptamine receptor 5A (Homo sapiens) (UniProt P47898). Briefly: Displacement of [3H]LSD from human 5-HT5A receptor expressed in Flp-In-CHO cell membranes incubated for 90 mins under dark condition by microbeta scintillation counting method relative to control. More on the design: concentration or dose not given beside the values.
Chain of 5-hydroxytryptamine receptor 5A (Homo sapiens) (P47898 whole entry): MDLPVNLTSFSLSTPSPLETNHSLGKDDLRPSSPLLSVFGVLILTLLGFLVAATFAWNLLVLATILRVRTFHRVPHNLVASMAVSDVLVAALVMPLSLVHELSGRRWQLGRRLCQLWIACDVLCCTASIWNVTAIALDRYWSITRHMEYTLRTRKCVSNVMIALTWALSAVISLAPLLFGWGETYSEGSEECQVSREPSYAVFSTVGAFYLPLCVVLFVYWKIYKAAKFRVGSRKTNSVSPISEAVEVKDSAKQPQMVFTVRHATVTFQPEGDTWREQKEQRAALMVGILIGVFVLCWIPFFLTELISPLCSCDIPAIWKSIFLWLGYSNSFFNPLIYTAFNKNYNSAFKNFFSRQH
Conditions: not given
Take `CC(=O)NCCNC(=O)[C@@]12C[C@@H]1[C@@H](n1cnc3c(NC(C4CC4)C4CC4)nc(Cl)nc31)[C@H](O)[C@@H]2O`: the inhibition was < 50%.

In the next test the target is T3, 5-hydroxytryptamine receptor 2A (Homo sapiens, UniProt P28223). Briefly: Displacement of [3H]ketanserin from human 5-HT2A receptor expressed in HEK-T cell membranes at 10 uM incubated for 90 mins under dark condition by microbeta scintillation counting method relative to control.
T3 sequence (P28223 whole entry): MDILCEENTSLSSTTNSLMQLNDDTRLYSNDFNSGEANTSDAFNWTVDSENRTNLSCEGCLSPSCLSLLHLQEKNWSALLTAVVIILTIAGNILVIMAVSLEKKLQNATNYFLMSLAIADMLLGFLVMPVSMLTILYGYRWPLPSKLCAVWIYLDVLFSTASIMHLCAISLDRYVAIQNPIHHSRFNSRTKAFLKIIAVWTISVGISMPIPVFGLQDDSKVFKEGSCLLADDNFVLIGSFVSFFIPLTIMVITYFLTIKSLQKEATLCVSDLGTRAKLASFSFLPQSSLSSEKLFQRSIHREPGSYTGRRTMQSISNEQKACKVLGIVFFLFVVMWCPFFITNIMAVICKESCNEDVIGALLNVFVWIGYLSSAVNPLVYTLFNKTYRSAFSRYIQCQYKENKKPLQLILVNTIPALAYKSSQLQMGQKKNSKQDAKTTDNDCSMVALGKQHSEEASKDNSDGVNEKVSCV
Conditions: not given
`CC(=O)NCCNC(=O)[C@@]12C[C@@H]1[C@@H](n1cnc3c(NC(C4CC4)C4CC4)nc(Cl)nc31)[C@H](O)[C@@H]2O`: the inhibition was < 10%.

In another test the target is T4, 5-hydroxytryptamine receptor 2B (Homo sapiens, UniProt P41595). The experiment in a line: biochemical. In kind it is cell-based, HEK293.
T4 sequence (P41595 whole entry): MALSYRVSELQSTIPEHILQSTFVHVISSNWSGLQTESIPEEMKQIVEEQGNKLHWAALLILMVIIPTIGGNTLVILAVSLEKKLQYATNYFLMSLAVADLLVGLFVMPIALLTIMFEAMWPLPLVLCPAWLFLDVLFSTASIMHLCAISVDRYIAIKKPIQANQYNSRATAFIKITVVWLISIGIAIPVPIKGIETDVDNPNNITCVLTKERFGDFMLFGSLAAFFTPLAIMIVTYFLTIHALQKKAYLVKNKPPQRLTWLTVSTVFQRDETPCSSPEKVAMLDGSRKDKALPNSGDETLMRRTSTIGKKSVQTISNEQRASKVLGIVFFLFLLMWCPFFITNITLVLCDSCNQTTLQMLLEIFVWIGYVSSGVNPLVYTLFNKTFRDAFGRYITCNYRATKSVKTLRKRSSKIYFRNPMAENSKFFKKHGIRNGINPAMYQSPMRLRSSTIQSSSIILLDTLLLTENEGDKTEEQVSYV
Conditions: not given
By Ki is commonly meant a dissociation constant, usually derived from enzyme kinetics or from competition with a known ligand. `CC(=O)NCCNC(=O)[C@@]12C[C@@H]1[C@@H](n1cnc3c(NC(C4CC4)C4CC4)nc(Cl)nc31)[C@H](O)[C@@H]2O` had an inhibition constant Ki of 332 nM.

The target of the next test is T5, 5-hydroxytryptamine receptor 2C (Homo sapiens, UniProt P28335).
T5 sequence (P28335 whole entry): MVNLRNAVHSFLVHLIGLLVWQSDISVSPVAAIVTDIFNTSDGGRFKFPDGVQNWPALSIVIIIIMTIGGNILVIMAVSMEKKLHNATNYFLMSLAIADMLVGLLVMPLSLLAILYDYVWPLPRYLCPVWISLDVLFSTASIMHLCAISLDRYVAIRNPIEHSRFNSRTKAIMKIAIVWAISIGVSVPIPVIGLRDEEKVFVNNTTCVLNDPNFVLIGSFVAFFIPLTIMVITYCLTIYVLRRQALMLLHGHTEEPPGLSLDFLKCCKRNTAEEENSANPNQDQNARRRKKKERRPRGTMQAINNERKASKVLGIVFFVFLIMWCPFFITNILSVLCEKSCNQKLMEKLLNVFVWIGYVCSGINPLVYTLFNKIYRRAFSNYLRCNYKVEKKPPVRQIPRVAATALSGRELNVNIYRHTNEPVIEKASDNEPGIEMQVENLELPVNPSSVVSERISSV
The experiment in a line: Displacement of [3H]mesulergine from human 5-HT2CR expressed in Flp-In HEK cell membranes incubated for 90 mins under dark condition by microbeta scintillation counting method. On the set-up: species or system HEK293.
Conditions: not given
`CC(=O)NCCNC(=O)[C@@]12C[C@@H]1[C@@H](n1cnc3c(NC(C4CC4)C4CC4)nc(Cl)nc31)[C@H](O)[C@@H]2O`: the affinity corresponds to a Ki of 1700 nM.

The target in a further test is T6, 5-hydroxytryptamine receptor 2C (Homo sapiens) (UniProt P28335).
T6 sequence (whole entry): T5 sequence (P28335 whole entry)
Briefly: Displacement of [3H]mesulergine from human 5-HT2CR expressed in Flp-In HEK cell membranes at 10 uM incubated for 90 mins under dark condition by microbeta scintillation counting method relative to control. The following applies: HEK293.
With `CC(=O)NCCNC(=O)[C@@]12C[C@@H]1[C@@H](n1cnc3c(NC(C4CC4)C4CC4)nc(Cl)nc31)[C@H](O)[C@@H]2O`, the inhibition was > 50%.

For the next test, the target named is T7, Adenosine receptor A1 (Homo sapiens, UniProt P30542).
T7 sequence (P30542 whole entry): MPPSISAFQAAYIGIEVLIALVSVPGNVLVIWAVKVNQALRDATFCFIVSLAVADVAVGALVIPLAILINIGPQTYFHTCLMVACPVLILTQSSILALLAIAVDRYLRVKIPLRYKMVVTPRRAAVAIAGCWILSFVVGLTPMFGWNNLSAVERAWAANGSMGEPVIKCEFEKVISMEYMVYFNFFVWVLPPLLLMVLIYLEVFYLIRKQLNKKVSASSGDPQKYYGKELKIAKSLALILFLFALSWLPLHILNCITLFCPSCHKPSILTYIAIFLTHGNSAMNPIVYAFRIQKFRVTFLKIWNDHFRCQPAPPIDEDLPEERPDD
Briefly: Displacement of [3H]N6-phenylisopropyladenosine from recombinant human A1AR expressed in CHO cell membranes after 60 mins by liquid scintillation counting method.
Conditions: not given
`CC(=O)NCCNC(=O)[C@@]12C[C@@H]1[C@@H](n1cnc3c(NC(C4CC4)C4CC4)nc(Cl)nc31)[C@H](O)[C@@H]2O`: the inhibitory constant (Ki) stood at 397 nM.

A further test addresses Adenosine receptor A2a (Homo sapiens, UniProt P29274). Briefly: Displacement of [3 H]2-[p-(2-carboxyethyl)phenyl-ethylamino]-5'-N-ethylcarboxamidoadenosine from recombinant human adenosine receptor A2A expressed in HEK293 cell membranes at 10 uM after 60 mins by liquid scintillation counting method relative to control.
Conditions: not given
In the case of `CC(=O)NCCNC(=O)[C@@]12C[C@@H]1[C@@H](n1cnc3c(NC(C4CC4)C4CC4)nc(Cl)nc31)[C@H](O)[C@@H]2O`, the inhibition is 20%.

A further test concerns the target T8, Adenosine receptor A3 (Homo sapiens, UniProt P0DMS8).
T8 sequence (P0DMS8 whole entry): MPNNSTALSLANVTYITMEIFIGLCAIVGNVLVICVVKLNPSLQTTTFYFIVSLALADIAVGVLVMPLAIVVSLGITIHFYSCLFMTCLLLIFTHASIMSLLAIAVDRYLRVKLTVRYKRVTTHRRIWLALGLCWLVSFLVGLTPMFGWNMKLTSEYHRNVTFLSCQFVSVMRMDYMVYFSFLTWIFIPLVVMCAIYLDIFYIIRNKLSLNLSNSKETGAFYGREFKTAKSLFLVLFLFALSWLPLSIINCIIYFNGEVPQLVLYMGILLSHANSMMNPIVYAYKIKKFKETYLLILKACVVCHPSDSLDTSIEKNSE
The experiment in a line: Displacement of [125l]N 6-(4-amino-3-iodobenzyl)adenosine-5'-N-methyluronamide from recombinant human A3AR expressed in CHO cell membranes after 60 mins by gamma counting method.
Conditions: not given
Turning to `CC(=O)NCCNC(=O)[C@@]12C[C@@H]1[C@@H](n1cnc3c(NC(C4CC4)C4CC4)nc(Cl)nc31)[C@H](O)[C@@H]2O`, the Ki is 1650 nM.

A further test deals with T3, 5-hydroxytryptamine receptor 2A. The experiment in a line: Displacement of [3H]ketanserin from human 5-HT2A receptor expressed in HEK-T cell membranes incubated for 90 mins under dark condition by microbeta scintillation counting method.
Conditions: not given
Take `CC(=O)NCCNC(=O)[C@@]12C[C@@H]1[C@@H](n1cnc3c(NC(C4CC4)C4CC4)nc(Cl)nc31)[C@H](O)[C@@H]2O`: the Ki was > 10 µM.

A further test addresses T4, 5-hydroxytryptamine receptor 2B.
Assay: not given
The note with it: HEK293, at 10 µM.
Consider `CC(=O)NCCNC(=O)[C@@]12C[C@@H]1[C@@H](n1cnc3c(NC(C4CC4)C4CC4)nc(Cl)nc31)[C@H](O)[C@@H]2O`, for which the inhibition was > 50%.
